Entries after “also recorded” stand apart in the source; their conditions may differ.
Columns and labels:
[1] = tested on: SK-N-Be2 cells; experiment: Cell viability assay (CellTiterGlo) in SK-N-Be2 cells; assay type: cell-based, human; conditions: SK-N-Be2 cells
[2] = tested on: TEAD4 transcript; experiment: RNASeq analysis of SK-N-Be2 cells, TEAD4 transcript; assay type: cell-based, human; conditions: 3 μM or 10 μM, 3 h and 6 h
Procedure: (§1) To uncover changes in gene expression that underpin responses to pomiferin and isopomiferin, RNASeq analysis of SK-N-Be2 cells was performed following treatment with the two active prenylated isoflavonoids as well as a null analog that served as a negative control. SK-N-Be2 cells were treated with either 3 μM or 10 μM of isopomiferin or pomiferin and sampled after 3 h and 6 h. […] By comparing the active to the null analogs, downstream analyses can focus on changes in gene expression associated with the MYCN signature.

[3] = Metabolic stability in mouse liver microsomes; assay type: in vitro ADME
Procedure: Mouse liver microsomes (Xenotech) were diluted to 0.5 mg/mL in a solution containing 100 mM PBS buffer at 7.4 pH, an NADPH regenerating system (Promega), and test compounds at 20 μM. The mixture was incubated at 37° C. under gentle rotation for the indicated time points. The reaction was quenched by aliquoting 15 μL of solution into 60 μL ice-cold acetonitrile containing an internal standard. Test compounds were quantified by LC-MS using a system comprised of a Thermo Scientific Dionex Ultimate 3000 and a Bruker amaZon SL equipped with an electrospray ionization source controlled by a Bruker Hystar 3.2. Compounds were separated by injecting 20 μL of sample onto an Agilent Eclipse Plus C18 column (2.1×50 mm, […]) maintained at 20° C., with the flow rate set at 400 μL/min. Initial flow conditions were 60% solvent A (MilliQ H2O, 0.1% acetic acid), and 40% solvent B (HPLC-grade MeOH, 0.1% acetic acid). Solvent B was raised to 60% over 0.25 min and to 70% by 6.75 min. Solvent B was raised to 95% by 7 min and lowered back to 40% by 8 minutes; total run time was 9 min.

[4] = tested on: MYCN transcript; experiment: RNASeq analysis of SK-N-Be2 cells, MYCN transcript; assay type: cell-based, human; conditions: 3 μM or 10 μM, 3 h and 6 h
Procedure: as §1

[5] = biological target: T1, CK2a1 (Homo sapiens, UniProt P68400); experiment: Cell-free biochemical CK2a1 kinase assay; conditions: for IC50: read-out: IC50 of CK2a kinase activity
T1 construct: purchased Reaction Biology Corporation (Malvern, Pa.)
T1 sequence (P68400 whole entry): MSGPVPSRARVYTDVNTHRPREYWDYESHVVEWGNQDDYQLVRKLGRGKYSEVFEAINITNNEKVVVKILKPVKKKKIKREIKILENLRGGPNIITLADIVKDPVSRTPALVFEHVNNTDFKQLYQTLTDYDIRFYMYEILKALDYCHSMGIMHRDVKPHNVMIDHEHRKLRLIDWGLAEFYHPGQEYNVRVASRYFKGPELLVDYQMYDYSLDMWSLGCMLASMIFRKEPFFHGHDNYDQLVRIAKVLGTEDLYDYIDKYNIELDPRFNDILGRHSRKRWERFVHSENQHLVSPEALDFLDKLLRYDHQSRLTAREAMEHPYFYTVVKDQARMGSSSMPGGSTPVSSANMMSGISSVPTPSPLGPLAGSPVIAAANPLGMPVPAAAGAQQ
Procedure: Cell-free biochemical kinase assays were performed at Reaction Biology Corporation (Malvern, Pa.). In brief, kinase substrates were diluted into reaction buffer containing 20 mM Hepes (pH 7.5), 10 mM MgCl2, 1 mM EGTA, 0.02% Brij35, 0.02 mg/ml BSA, 0.1 mM Na3VO4, 2 mM DTT, 1% DMSO. Purified protein (CK2a1, CK2a2, or mTOR) was added to the substrate solution and gently mixed. Test compounds were diluted from 10 mM DMSO stock solutions into the reaction buffer using an Echo550 acoustic dispenser, followed by incubation at RT for 20 min. 33P-ATP (10 μCi/μL) was added to reaction mixture, following incubation for 2 h at RT. Reactions were then spotted onto P81 ion exchange paper and kinase activity was detected by filter binding method.

[6] = tested on: NCI-H69, NCI-H526, NCI-H4414 and A549 cells; experiment: Cell viability of four lung cancer cell lines; assay type: cell-based; conditions: dose series
Procedure: Neuroblastoma (SK-N-Be2; IMR-32; NLF; SK-N-AS) and lung cancer cell lines (NCI-H69; NCI-H526; NCI-H441-4) were grown in Advanced RPMI medium (Life Technologies) supplemented with 10% FBS (Gibco), 1% GlutaMAX (Gibco), and 1% Penicillin/Streptomycin. A549 cells (NSCLC) was grown in F-12K medium (Gibco) with 10% FBS (Gibco), and 1% Penicillin/Streptomycin. Cell cultures were incubated at 37° C. with 5% CO2. For chemical screening, cells were trypsinized, counted and seeded into white opaque 384-well plates (Perkin Elmer) at a density of 1000 cells/well and incubated overnight. […] Cells were treated for 72 hrs, after which cell viability was determined using CellTiterGlo® luminescence assay, following the manufacturer's instructions (Promega). […] Cell viability data were analyzed and charted using PRISM v7.0 software (GraphPad). The dose-response curves were used to generate an inhibitory constant (IC50) value, which was averaged across the two cell lines from each subtype (ie: SK-N-AS and NLF as MESN NBL subtype; IMR-32 and SK-N-Be2 as MycN^AMP subtype). The IC50 values for each subtype were used to evaluate subtype selectivity of each compound, and identify compounds with enhanced potency in MycN^AMP NBL.

[7] = tested on: MYCNA tumor xenografts; experiment: Tumor growth of MYCNA tumor xenografts; assay type: in vivo, mouse; conditions: daily i.p. 20 mg/kg, 21 days, versus vehicle-only control
Procedure: 6-week old male mice were purchased from Charles River Laboratories, and housed in Columbia University's animal control barrier facilities, and mice were allowed one week to acclimate to their new environment. To establish tumor xenografts, 10×10^6 SK-N-Be2 cells were suspended in a 200 μL volume of 50% matrigel slurry. […] Mice were kept on standard chow diet (Purina), and their cage dressing changed twice weekly. Animals were investigated regularly for any sign of discomfort. […] To create the stock solution of isopomiferin, 5 mg of isopomiferin (MicroSource) was dissolved into 50 μL dimethyl sulfoxide (DMSO). To this 450 μL of cyclodextrin solution was added dropwise. Cyclodextrin is dissolved as a 50% w/v solution in 40% EtOH. It is important to add the cyclodextrin slowly and with continual mixing to solubilize the compound. This solution was added to one volume of PBS and filter-sterilized. This solution was then diluted to achieve appropriate concentrations for a 200 μL volume administration at 10 mg/kg to each mouse. The solution was administered to animals via intraperitoneal injection (i.p.). […]
The ability of the compounds to inhibit growth of MYCNA tumor xenografts was evaluated by treating tumor bearing mice with daily i.p. injections of 20 mg/kg isopomiferin or pomiferin. […] MYCN abundance was evaluated mid-experiment, following 14 days of treatment.

SMILES | IC20 ([1]; determined empirically) [µM] | TEAD4 transcript (RNASeq) [2] | compound remaining in mouse liver microsomes ([3]; mouse, microsomes, 2 h) [%] | MYCN transcript abundance (RNASeq) [4] | IC50 [5] [µM] | sensitivity of MycN-expressing versus non-expressing lung cancer lines (cell viability) [6] | tumor growth [7] | inhibition of SK-N-Be2 cell viability (rank or activity in words) ([1]; 72 hrs) | compound remaining in mouse liver microsomes ([3]; 2 h incubation, 0.5 mg/mL microsomes) [%] | CK2a1 kinase activity [5]
CC1(C)C=Cc2c(c3c(c4c(=O)c(-c5ccc(O)c(O)c5)coc24)OC(C)(C)CC3)O1 [isopomiferin] | 10 | did not affect TEAD4 | ~50 | suppressed MYCN transcript abundance | ~7 | the MycN-expressing lines were more sensitive to isopomiferin treatment | these differences were not significant |  |  | 
CC(C)=CCc1c2c(c3occ(-c4ccc(O)c(O)c4)c(=O)c3c1O)C=CC(C)(C)O2 [pomiferin] |  | suppressed both MYCN and TEAD4 transcript |  | suppressed MYCN transcript abundance | ~7 | MycN-driven cell lines were more sensitive to the compound | reduced rates of tumor proliferation that were significant from the vehicle-only control arm by day 19 | the most potent compound of the group; also recorded: the most potent inhibitor of viability | ~80 | inhibiting both isoforms equally in a concentration-dependent manner
